The test system of test [1] is breast cancer (MCF-7) cell line. Briefly: Antiproliferative MTT assay, MCF-7. It is filed as cell-based. The following applies: Homo sapiens, MCF7, MCF-7 breast cancer cells, read-out: Antiproliferative activity IC50 ± SEM MCF-7. The method, then: (§1) 4.2.1.2. Assay for antiproliferative effect
(§2) To explore the antiproliferative potential of compounds MTT assay was performed according to previously reported procedure using different cell lines to explore the antiproliferative potential of […]
(§3) calculate the total nuclear DNA, a fluorescent dye (propidium iodide, PI) is used which can attach to the DNA, thus offering a quick and precise technique. PI cannot pass through the cell membrane and its signal intensity can be considered as directly proportional to quantity of cellular DNA.
(§4) Cells whose cell membranes are damaged or have changed permeability are counted as dead ones.
(§5) The assay was performed by seeding the cells of different cell lines at a density of 3000-7500 cells/well (in 200µl medium) in culture plates followed by incubation for 24h at 37 °C in humidified 5% CO2/95% air atmospheric conditions. The medium was removed; the compounds were added to the plates at 10 µM concentrations (in 0.1% DMSO) in triplicates, followed by incubation for 48 h. DMSO (0.1%) was used as control. After incubation, medium was removed […]
(§6) 80 °C, the plates were allowed to freeze for 24 h, followed by thawing at 25 °C. […]
(§7) (Polar-Star BMG Tech) was used to record the readings at excitation and emission wavelengths of 530 and 620 nm for each well. The percentage cytotoxicity of compounds was calculated using […]
(§8) Where ATC= Absorbance of treated cells and AC= Absorbance of control. Erlotinib was used as positive control in the assay.
On the technique in general: Tetrazolium dyes change colour on reduction, which living cells bring about.

Test [2] concerns A-549 cells. The test is described as follows: Apoptosis induction assay, Annexin V/PI flow cytometry. It counts as cell-based, human. The note with it: A-549, Annexin V/PI, 24 h. On the procedure:
To assess 9b′s potential to induce apoptosis, A-549 cells were labeled with Annexin V/PI, grown for 24 h, and evaluated.
Compound 9b was investigated for its effects on cell cycle progression and apoptosis induction in A-549 cells. […] The cell line was labeled with PI/Annexin V, and flow cytometry was done with a BD FASC Caliber ([El-Sherief et al., 2018]). See Supplementary Appendix A for more details. […]
served as positive control. To study the effect of compounds on cell-based pERK1/2 activity in cancer cells, commercially available ELISA kits (Invitrogen) were used according to manufacturer’s instructions.
4.2.1.6. Cell apoptosis assay
Apoptosis was determined by flow cytometry based on the Annexin-V-fluoresce in isothiocyanate (FITC) and propidium iodide (PI) staining kit (BD Pharmingen, San Diego, USA).
(FITC) and propidium iodide (PI) staining kit (BD Pharmingen, San Diego, USA). Apoptotic cells were defined as Annexin-V-positive. Cells were grown to approximately ∼70% confluence and exposed to different concentrations of compounds (0, 2, 4, 6 and8 μmol/L) for 24 h. […] Subsequently, cells were analyzed by flow cytometry (Becton Dickinson, Franklin Lakes, and USA). […]
Computerized Prism 5 program was used to statistically analyzed data using one-way ANOVA test followed by Tukey’s as post ANOVA for multiple comparison at P ≤.05. […]

Test [3] relates to four human cancer cell lines (HT-29, Panc-1, A-549, MCF-7). The test is described as follows: Average antiproliferative activity (GI50) over four cancer cell lines. It counts as cell-based. The note with it: average IC50 against the four cancer cell lines. The method, then:
as §1, §2, §3, §4, §5, §6, §7, §8

In test [4] the test system is A-549 cells. The test is described as follows: Cell cycle analysis by flow cytometry. It is filed as cell-based, human. The note with it: A-549, IC50 concentration, 24 h. An excerpt:
Compound 9b was investigated for its effects on cell cycle progression and apoptosis induction in A-549 cells. […] The cell line was labeled with PI/Annexin V, and flow cytometry was done with a BD FASC Caliber ([El-Sherief et al., 2018]).
Compound 9b was investigated for its effects on cell cycle progression and apoptosis induction in A-549 cells. […] The cell line was labeled with PI/Annexin V, and flow cytometry was done with a BD FASC Caliber ([El-Sherief et al., 2018]). See Supplementary Appendix A for more details.
On the technique in general: A flow cytometer gives signals particle by particle.

For test [5], the system named is lung cancer (A-549) cell line. The test is described as follows: Antiproliferative MTT assay, A-549. The note with it: Homo sapiens, A549, A-549 lung cancer cells, read-out: Antiproliferative activity IC50 ± SEM A-549. It is filed as cell-based. The method, then:
as §1, §2, §3, §4, §5, §6, §7, §8

For the next test, the target named is T1, BRAF^V600E (Homo sapiens, UniProt P15056, V600E).
T1 construct: Mouse full-length GST-tagged BRAFV600E; GST; purchased Invitrogen PV3849
T1 sequence (P15056 2-766 V600E limits assumed): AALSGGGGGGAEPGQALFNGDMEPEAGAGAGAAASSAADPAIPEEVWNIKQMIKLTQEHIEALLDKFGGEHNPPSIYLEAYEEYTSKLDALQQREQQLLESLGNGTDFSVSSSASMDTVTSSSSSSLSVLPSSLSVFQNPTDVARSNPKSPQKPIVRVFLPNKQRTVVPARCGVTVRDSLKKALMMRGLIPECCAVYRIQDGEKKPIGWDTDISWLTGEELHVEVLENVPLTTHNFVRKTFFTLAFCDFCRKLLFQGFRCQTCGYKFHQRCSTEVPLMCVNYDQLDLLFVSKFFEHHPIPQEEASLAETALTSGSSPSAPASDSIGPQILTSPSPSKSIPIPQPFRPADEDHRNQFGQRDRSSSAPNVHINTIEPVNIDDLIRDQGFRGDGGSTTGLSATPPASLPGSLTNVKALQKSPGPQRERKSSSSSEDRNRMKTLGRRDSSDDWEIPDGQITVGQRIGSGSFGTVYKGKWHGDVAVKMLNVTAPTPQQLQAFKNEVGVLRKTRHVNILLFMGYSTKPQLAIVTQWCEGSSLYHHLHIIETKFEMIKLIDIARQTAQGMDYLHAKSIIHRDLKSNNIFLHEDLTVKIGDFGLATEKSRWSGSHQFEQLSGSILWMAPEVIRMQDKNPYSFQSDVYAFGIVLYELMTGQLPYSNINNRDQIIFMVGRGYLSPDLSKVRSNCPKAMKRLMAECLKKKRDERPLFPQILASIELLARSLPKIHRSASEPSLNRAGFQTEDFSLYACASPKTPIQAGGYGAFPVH
The test is described as follows: BRAF^V600E kinase inhibitory assay. It is filed as biochemical, Mouse. The note with it: read-out: BRAF^V600E inhibition IC50 ± SEM. The method, then: Refer to Supplementary Appendix A for more details. […]
4.2.1.4. BRAF kinase assay […]
against BRAF. Mouse full-length GST-tagged BRAFV600E (7.5 ng, Invitrogen, PV3849) was pre-incubated with drug (1 µL) and assay dilution buffer (4 µL) for 60 min at 25 °C. In assay dilution buffer, a solution (5 µL) containing MgCl2 (30 mM), ATP (200 µM), recombinant human full length (200 ng) […] N-terminal His-tagged MEK1 (Invitrogen) was added to start the assay, subsequent to incubation for 25 min at 25 °C. The assay was stopped using 5X protein denaturing buffer (LDS) solution (5 µL). To further denature the protein, heat (70° C) was applied for 5 min.
10 µL of each reaction was loaded into the precast plates and electrophoresis was allowed to proceed. After completion of electrophoresis, the front part of the precast gel plate (holding hot ATP) was cut and afterwards cast-off. The dried gel was developed using a phosphor screen. A […]
served as positive control. […]
(FITC) and propidium iodide (PI) staining kit (BD Pharmingen, San Diego, USA). […]
4.3. Statistical analysis
Computerized Prism 5 program was used to statistically analyzed data using one-way ANOVA test followed by Tukey’s as post ANOVA for multiple comparison at P ≤.05. Data were presented

The target in another test is EGFR^T790M (Homo sapiens, UniProt P00533, T790M). The test is described as follows: EGFR^T790M inhibitory assay (HTRF KinEASE-TK). Background: TR-FRET usually uses a lanthanide donor and a delayed reading to cut background.
EGFR^T790M, sequence (P00533 25-1210 T790M): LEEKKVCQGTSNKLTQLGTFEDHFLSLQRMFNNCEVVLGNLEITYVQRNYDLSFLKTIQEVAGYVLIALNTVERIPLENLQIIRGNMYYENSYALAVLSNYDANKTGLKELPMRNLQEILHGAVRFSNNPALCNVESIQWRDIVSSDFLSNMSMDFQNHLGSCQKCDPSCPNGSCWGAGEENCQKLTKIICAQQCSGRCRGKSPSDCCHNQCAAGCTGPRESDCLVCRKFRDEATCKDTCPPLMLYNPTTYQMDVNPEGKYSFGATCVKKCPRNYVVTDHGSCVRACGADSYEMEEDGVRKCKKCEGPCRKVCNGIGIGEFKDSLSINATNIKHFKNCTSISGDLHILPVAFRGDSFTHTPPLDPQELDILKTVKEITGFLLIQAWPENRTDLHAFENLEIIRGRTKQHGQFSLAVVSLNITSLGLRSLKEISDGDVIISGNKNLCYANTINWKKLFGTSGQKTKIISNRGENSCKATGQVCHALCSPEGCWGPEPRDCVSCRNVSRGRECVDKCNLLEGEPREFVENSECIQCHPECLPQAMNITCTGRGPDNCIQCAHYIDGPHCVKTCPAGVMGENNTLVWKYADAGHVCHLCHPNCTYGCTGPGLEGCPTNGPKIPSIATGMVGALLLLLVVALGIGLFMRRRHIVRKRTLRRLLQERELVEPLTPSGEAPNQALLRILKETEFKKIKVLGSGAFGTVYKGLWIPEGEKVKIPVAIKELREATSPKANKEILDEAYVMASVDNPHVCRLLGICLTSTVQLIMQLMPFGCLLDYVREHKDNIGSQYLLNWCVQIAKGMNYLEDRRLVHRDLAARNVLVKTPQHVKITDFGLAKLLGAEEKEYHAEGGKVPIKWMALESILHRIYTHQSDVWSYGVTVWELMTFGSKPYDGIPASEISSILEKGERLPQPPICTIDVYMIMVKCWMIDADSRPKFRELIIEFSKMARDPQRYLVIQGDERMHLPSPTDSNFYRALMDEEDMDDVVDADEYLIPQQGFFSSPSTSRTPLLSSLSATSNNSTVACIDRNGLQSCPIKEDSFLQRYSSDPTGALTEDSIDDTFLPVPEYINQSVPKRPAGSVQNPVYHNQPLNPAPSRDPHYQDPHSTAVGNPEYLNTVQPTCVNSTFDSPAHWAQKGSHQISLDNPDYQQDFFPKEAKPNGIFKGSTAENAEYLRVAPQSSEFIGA
Test [6] relates to colon cancer (HT-29) cell line. The test is described as follows: Antiproliferative MTT assay, HT-29. It is filed as cell-based. The following applies: Homo sapiens, HT-29 colon cancer cells, read-out: Antiproliferative activity IC50 ± SEM HT-29.

The structures appear in SMILES notation.

A word on the IC50: it is the concentration at which inhibition is half-maximal. For orientation: GI50 means the concentration at which growth is held to half of that of the control. Read a low GI50 as greater sensitivity of the cells. Regarding `O=c1c2ccccc2nc(SCc2nc(-c3ccc(Cl)cc3)no2)n1-c1ccccc1` [Compound 9b, 2-((3-(4-Chlorophenyl)-1,2,4-oxadiazol-5-yl)methylthio)-3 phenylquinazolin-4(3H)-one], the IC50 in test [1] was determined as 26 ± 2 nM; in test [5], 22 ± 2 nM; on BRAF^V600E, 48 ± 4 nM; on EGFR^T790M it was 10 ± 1 nM; in test [6], 24 ± 2 nM. The Necrosis percentage with A-549 cells [2] was 6.43%. This molecule yielded a GI50 in test [3] of 24 nM. For the same molecule, in the test on A-549 cells [4], the “Effect on cell cycle” value was “cell cycle arrest at the G2/M transition”.

(Values after paper PMC11393688, “Design and synthesis of new 1,2,4-oxadiazole/quinazoline-4-one hybrids with antiproliferative activity as multitargeted inhibitors” (Frontiers in Chemistry, 2024).)
